{"source": "patent US20180028478A1", "about": "“ANTIVIRAL COMPOSITIONS DIRECTED AGAINST THE NUCLEOPROTEIN OF INFLUENZA VIRUSES” (priority 2011, published 2018)", "key": {"NP R152A": {"biological_target": "NP R152A (Influenza A virus, UniProt P15682, R152A)", "format": "binding, type-A Influenza virus"}, "NP WT": {"biological_target": "NP WT (Influenza A virus, UniProt P15682, A237T/A472T/G34D/M105R/P283S)", "format": "binding, type-A Influenza virus (H1N1 A/WSN/1933)"}, "NP R361A [1]": {"biological_target": "T1, NP R361A (Influenza A virus, UniProt P15682, R361A)"}, "NP": {"biological_target": "NP (Influenza A virus, UniProt P15682, A237T/A472T/G34D/M105R/P283S)"}, "NP R416A mutant": {"biological_target": "NP R416A mutant (Influenza A virus, UniProt P15682, R416A)"}, "NP Y148A": {"biological_target": "NP Y148A (Influenza A virus, UniProt P15682, Y148A)"}, "[2]": {"biological_target": "nucleoprotein of SEQ ID NO: 2 (Influenza A virus, UniProt P15682, A237T/A472T/G34D/M105R/P283S)"}, "NP R361A [3]": {"biological_target": "T1, NP R361A", "remark": "listed apart in the source"}}, "data": [{"compound": "COc1ccc2cc(C(CC(=O)O)CC(=O)O)ccc2c1", "note": "[Naproxen A]", "values": [{"measurement": "effect of R152A mutation on affinity", "setting": "NP R152A", "value": "reduces the affinity"}, {"measurement": "competition with the association of RNA to NP (signal of NP-RNA complex)", "setting": "NP WT", "value": "biphasic effect"}]}, {"compound": "COc1ccc2cc(-c3c(C(=O)O)cccc3C(=O)O)ccc2c1", "note": "[Naproxen c0]", "values": [{"measurement": "effect of R152A mutation on affinity", "setting": "NP R152A", "value": "reduces the affinity"}]}, {"compound": "COc1ccc2cc(C(C)C(=O)O)ccc2c1", "note": "(centres unmarked) [Naproxen]", "values": [{"measurement": "competition with the RNA / attachment", "setting": "NP R361A [1]", "value": "does not compete with the RNA any longer"}, {"measurement": "direct attachment to surface-bound protein", "setting": "NP", "value": "direct attachment"}, {"measurement": "attachment to R416A mutant", "setting": "NP R416A mutant", "value": "does not fix"}, {"measurement": "competition with the RNA", "setting": "NP Y148A", "value": "does not compete with the RNA any longer"}, {"measurement": "effect of R152A mutation on affinity", "setting": "NP R152A", "value": "no effect"}, {"measurement": "competition with the association of RNA to NP (signal of NP-RNA complex)", "setting": "NP WT", "value": "signal decrease"}, {"measurement": "beacon fluorescence in the presence of compound", "setting": "[2]", "value": "fluorescence decreases"}, {"measurement": "direct attachment to surface-bound protein", "setting": "NP R361A [3]", "value": "but not to R361A"}]}]}
